Data: patent US7488792B2, “Collagen-binding molecules that selectively home to tumor vasculature and methods of using same” (Burnham Institute for Medical Research, priority 2002, dated 2009)
Ends that are not written are not given here. * marks the point of attachment. FITC = O=C1OC2(c3ccc(O)cc3Oc3cc(O)ccc32)c2ccc(NC(=S)*)cc21

What was measured:
mitochondrial membranes = conditions: concentration of 10 μM; cited from earlier work
tumor = assay: In vivo tumor homing of CREKA phage with co-injection of gelatin
MMTV PyMT tumors = assay: Tissue localization of fluorescein- and rhodamine-labeled peptide after intravenous injection; assay type: in vivo, mouse; conditions: for detection of labeled peptide in MMTV PyMT tumors / detection of labeled peptide in normal tissues: 15 minutes after intravenous injection; for detection of labeled peptide in normal tissues: brain or liver
Protocol: Similarly, fluorescein (FITC) and rhodamine labeled CREKA (SEQ ID NO: 1) peptides also were detected in MMTV PyMT tumors 15 minutes after intravenous injection but were not observed in normal tissues such as the brain or liver (compare FIG. 3A with FIGS. 3B and 3C). […] As expected, control organs such as the heart, injected with rhodamine-labeled CREKA (SEQ ID NO: 1) and FITC-tomato-lectin, which stains blood vessels, were negative for CREKA (SEQ ID NO: 1) peptide staining (see FIG. 3F).
Peptide synthesis and labeling of peptides with fluorescein and rhodamine was carried out as described in Wender et al., Proc. Natl. Acad. Sci., USA 97:13003-13008 (2000), and Oku et al., supra, 2002, and detected essentially as follows. A 1 mg/ml solution of fluorescein-labeled CREKA (SEQ ID NO: 1) peptide in PBS was injected into the tail vein of MMTV PyMT mice. After 15 minutes or two hours of circulation, mice were perfused through the heart with 10 ml PBS, and the indicated organs harvested. Tissues were dissected, fixed with 3.7% paraformaldehyde for two hours, washed with PBS, and soaked in glycine (0.01%, pH 7.4) for 12 hours. Specimens were then treated with a sucrose gradient (12%, 15%, 18%), embedded in Tissue-Tek© (Miles Inc.; Elkhardt, Ind.) and frozen. Subsequently, 5 μm sections were prepared for fluorescence microscopy, and 50 μm sections were prepared for confocal microscopy. To detect blood vessels, 100 μl of 1 mg/ml solution of fluorescein-labeled tomato lectin (Vector Labs; Burlingame, Calif.) was injected into mice in PBS.

[1] = target: T1, collagen IV in MMTV-PyMT tumors (Mus musculus, UniProt P02463+P08122); assay: Co-localization of injected FITC peptide with collagen IV immunostaining in tumors; assay type: in vivo; conditions: 100 μg injected into tail vein, 15 minutes; connective tissue surrounding tumor masses
T1 construct: from tissue; host or cells: breast tumors of MMTV PyMT mice
T1 sequence (P02463 173-1669): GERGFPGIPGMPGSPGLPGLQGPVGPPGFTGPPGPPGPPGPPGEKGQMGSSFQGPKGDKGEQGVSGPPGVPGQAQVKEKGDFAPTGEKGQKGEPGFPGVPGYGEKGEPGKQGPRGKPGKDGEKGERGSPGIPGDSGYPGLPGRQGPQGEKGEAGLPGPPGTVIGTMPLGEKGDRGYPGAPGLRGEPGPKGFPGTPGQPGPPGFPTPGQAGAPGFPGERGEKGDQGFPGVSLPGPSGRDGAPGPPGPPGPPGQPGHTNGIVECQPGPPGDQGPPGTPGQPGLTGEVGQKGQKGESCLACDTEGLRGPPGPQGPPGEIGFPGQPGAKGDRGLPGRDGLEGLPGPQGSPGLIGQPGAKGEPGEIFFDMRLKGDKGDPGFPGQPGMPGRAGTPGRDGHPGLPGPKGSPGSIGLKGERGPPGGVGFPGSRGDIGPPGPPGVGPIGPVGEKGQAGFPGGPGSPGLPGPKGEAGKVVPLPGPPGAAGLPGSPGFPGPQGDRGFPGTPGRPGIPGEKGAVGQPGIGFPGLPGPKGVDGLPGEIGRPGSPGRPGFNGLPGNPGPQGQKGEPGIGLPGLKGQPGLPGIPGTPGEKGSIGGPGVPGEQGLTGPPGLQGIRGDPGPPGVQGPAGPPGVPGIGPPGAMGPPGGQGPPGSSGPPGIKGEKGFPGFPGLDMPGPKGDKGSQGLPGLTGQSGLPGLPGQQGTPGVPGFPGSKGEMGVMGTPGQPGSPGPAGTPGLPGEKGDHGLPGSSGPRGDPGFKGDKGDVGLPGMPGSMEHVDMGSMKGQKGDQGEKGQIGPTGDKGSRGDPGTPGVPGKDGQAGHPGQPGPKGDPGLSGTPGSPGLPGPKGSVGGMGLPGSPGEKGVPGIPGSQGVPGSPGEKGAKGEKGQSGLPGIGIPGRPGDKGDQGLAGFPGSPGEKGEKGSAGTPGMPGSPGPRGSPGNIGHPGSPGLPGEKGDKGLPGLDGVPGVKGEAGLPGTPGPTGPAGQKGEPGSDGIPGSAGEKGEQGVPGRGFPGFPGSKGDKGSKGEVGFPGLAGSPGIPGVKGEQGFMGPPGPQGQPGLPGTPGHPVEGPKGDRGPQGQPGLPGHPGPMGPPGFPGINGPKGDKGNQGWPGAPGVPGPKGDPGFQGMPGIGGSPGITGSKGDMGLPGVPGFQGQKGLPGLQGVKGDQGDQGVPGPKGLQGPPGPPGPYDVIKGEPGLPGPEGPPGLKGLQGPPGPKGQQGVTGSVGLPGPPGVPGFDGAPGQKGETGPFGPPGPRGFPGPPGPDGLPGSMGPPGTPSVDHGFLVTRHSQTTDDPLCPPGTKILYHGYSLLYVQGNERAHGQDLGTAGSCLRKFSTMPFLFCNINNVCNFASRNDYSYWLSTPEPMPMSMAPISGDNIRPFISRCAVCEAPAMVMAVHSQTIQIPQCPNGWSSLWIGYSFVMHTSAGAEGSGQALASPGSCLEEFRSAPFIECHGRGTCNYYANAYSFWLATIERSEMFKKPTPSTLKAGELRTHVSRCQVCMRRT
T1 sequence (P08122 184-1707): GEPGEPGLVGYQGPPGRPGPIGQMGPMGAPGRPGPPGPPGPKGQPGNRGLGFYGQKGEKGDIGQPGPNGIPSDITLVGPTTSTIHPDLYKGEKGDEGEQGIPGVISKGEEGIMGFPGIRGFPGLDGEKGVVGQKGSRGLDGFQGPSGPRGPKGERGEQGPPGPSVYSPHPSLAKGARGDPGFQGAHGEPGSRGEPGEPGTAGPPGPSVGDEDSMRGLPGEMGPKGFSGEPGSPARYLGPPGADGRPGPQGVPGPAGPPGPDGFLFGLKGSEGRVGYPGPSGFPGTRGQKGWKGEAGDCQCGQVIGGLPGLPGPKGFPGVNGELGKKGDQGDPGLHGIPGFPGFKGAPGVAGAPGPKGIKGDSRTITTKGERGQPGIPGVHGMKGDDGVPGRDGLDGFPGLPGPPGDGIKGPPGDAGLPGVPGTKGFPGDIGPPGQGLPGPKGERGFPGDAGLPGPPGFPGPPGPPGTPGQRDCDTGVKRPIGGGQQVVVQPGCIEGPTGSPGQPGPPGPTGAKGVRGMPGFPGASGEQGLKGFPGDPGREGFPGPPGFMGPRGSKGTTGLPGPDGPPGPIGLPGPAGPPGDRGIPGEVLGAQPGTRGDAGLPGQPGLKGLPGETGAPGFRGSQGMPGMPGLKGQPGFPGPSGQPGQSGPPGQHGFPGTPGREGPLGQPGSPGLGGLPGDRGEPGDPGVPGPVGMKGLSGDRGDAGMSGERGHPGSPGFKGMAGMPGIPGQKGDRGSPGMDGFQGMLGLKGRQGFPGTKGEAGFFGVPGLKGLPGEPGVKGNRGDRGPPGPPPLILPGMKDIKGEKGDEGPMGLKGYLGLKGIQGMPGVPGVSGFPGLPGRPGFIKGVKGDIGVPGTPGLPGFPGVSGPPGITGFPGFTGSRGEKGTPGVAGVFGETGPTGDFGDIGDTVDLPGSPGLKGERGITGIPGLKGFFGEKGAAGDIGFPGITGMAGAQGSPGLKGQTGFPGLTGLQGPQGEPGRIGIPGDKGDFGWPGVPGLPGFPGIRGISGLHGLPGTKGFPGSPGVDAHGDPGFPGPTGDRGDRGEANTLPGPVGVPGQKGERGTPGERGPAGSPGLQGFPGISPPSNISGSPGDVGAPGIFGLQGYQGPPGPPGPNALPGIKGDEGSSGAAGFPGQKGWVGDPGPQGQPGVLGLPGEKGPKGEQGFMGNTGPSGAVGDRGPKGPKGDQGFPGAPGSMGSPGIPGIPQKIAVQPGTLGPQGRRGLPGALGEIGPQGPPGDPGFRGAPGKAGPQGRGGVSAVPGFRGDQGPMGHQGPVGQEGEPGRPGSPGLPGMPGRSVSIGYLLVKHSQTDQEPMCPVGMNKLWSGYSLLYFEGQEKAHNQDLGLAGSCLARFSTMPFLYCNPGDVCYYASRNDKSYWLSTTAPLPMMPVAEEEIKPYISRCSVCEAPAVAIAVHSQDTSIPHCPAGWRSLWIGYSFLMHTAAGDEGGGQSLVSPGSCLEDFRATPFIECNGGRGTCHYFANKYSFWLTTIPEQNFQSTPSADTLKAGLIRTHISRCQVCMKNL
Protocol: Localization of collagen IV was compared to the localization of CREKA (SEQ ID NO: 1) peptide in breast tumors.
Immunostaining was performed after injection of 100 μg FITC-CREKA (SEQ ID NO: 1) into the tail vein of MMTV PyMT mice. After 15 minutes, tumors were dissected, fixed, stained for collagen IV and counter-stained with DAPI essentially as follows. Collagen IV was detected by immunofluorescence as described in Engvall et al., supra, 1982, with the following modifications. Briefly, mouse tissues were fixed with 3.7% paraformaldehyde for two hours, washed with PBS, and incubated in glycine (0.01%, pH 7.4) for 12 hours to quench autofluorescence of the samples. Specimens were then treated with increasing concentrations of sucrose (12%, 15%, 18%), embedded in Tissue-Tek© (Miles Inc.), frozen, and cut into 5 μm sections. After an overnight incubation with rabbit antiserum to collagen IV (diluted 1:40 in PBS) at 4° C. (Engvall et al., supra, 1982), the sections were washed with PBS and incubated with rhodamine-labeled goat anti-rabbit antibody (DAKO) at a dilution of 1:30 for 30 minutes. After washing, the sections were mounted in 90% glycerol.

[2] = system: vasculature of MDA-MB-435 human breast cancer cell xenografts; assay: In vivo homing of phage to MDA-MB-435 xenografts in nude mice (phage recovery, pfu); set-up: species or system mouse; conditions: co-injection
Protocol: Phage preparations (1×10^9 plaque forming units (pfu)) of CREKA (SEQ ID NO: 1)-displaying phage were injected into tumor-bearing mice and subsequently recovered from breast tumors and a variety of normal tissues. […] The CREKA (SEQ ID NO: 1) phage also homed to the vasculature of MDA-MB-435 human breast cancer cell xenografts grown in the mammary fat pad of nude mice with a 20-fold specificity over non-recombinant phage as shown in FIG. 1B.
In vivo phage display screens were performed with 65 to 75 day old transgenic MMTV PyMT mice obtained from Dr. William Muller. MDA-MB-435 tumors were generated as described in Laakkonen et al., Nat. Med. 7:751-755 (2002). Briefly, 10^6 MDA-MB-435 cells in 100 μl phosphate buffered saline (PBS) were injected into the mammary fat pad of nude mice. Tumors were grown for five weeks before the animals were used in vivo studies. In vivo phage screening was performed as described in Porkka et al., Proc. Natl. Acad. Sci., USA 99:7444-7449 (2002), with a few modifications. Briefly, mice were anesthetized with avertin and then injected intravenously with 10^9 pfu of the CX7C library. Mice were perfused through the heart with 10 ml of PBS seven minutes after the injection. […] Cell-adherent phage particles were recovered by infecting BL21 bacteria (Novagen), and the number of phage quantified by plaque assay.

[3] = target: T2, collagen IV fragment of clone #3 (SEQ ID NO: 2) (Mus musculus, UniProt P08122); assay: Binding of phage displaying clone #3 collagen IV fragment to immobilized CREKA peptide and its competition; set-up: effect of fibronectin on phage binding (clone #3 fragment / immobilized CREKA): dose or concentration left out as unconfirmed
T2 construct: made in house; host or cells: T7 phage (modified T7Select1-2b) amplified in BLT 5615 bacteria; cDNA from mouse 4T1 cells
T2 sequence (P08122 with tags, fused parts or gaps): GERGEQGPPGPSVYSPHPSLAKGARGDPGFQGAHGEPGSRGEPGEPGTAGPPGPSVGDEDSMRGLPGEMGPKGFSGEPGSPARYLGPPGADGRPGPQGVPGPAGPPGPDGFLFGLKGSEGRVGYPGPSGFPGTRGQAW
Protocol: Expression cloning was performed essentially as described in Essler and Ruoslahti, Proc. Natl. Acad. Sci., USA 99:2252-2257 (2002). CREKA (SEQ ID NO: 1) peptide was synthesized on a Symphony synthesizer (Rainin Instruments; Emeryville, Calif.) at The Burnham Institute peptide facility, and purified by high performance liquid chromatography. […] Biotin-labeled peptide (2 mg/ml) was immobilized on a streptavidin-coated 96 well Reacti-Bind® polystyrene strip plate (Pierce; Rockford, Ill.) by coating overnight at room temperature with 100 μl of 2 mg/ml biotin-CREKA (SEQ ID NO: 1) in PBS. The wells were subsequently treated three times with 200 μl SuperBlock® blocking buffer (Pierce).
Binding assays were performed as follows. […]
For competitions with free CREKA (SEQ ID NO: 1) peptide, phage displaying the clone #3 collagen IV fragment (SEQ ID NO: 2; 1×10^7 pfu) were applied to CREKA (SEQ ID NO: 1)-coated surfaces in 96-well ELISA plates prepared as described above, and incubated for one […] in the presence of 0.01 mg, 0.05 mg, or 0.1 mg soluble CREKA (SEQ ID NO: 1) peptide in 100 μl PBS. […] After 20 washes with 100 μl PBS, phage particles were recovered by infecting BL21 bacteria, and the number of attached phage determined. Phage output was determined as a percentage of phage recovered from wells not treated with soluble peptide.

[4] = after two hours, localizing outside the blood vessels

| Substance | detection of labeled peptide in MMTV PyMT tumors (MMTV PyMT tumors) | distribution of labeled peptide within tumor (MMTV PyMT tumors; 15 minutes after the injection) | distribution of labeled peptide within tumor (MMTV PyMT tumors; [4]) | detection of labeled peptide in normal tissues (MMTV PyMT tumors) | further results |
| --- | --- | --- | --- | --- | --- |
| D(KLAKLAK)2 |  |  |  |  | mitochondrial swelling (mitochondrial membranes): marked mitochondrial swelling |
| gelatin |  |  |  |  | effect of co-injection on in vivo tumor homing of CREKA-expressing phage (tumor): completely blocked |
| FITC-CREKA: fluorescein (FITC) labeled CREKA (SEQ ID NO: 1) peptide ({FITC}-CREKA) | detected | primarily in the tumor periphery | detected in the entire tumor | not observed | co-localization with collagen IV in tumors [1]: partially co-localized |
| rhodamine-labeled CREKA: rhodamine labeled CREKA (SEQ ID NO: 1) peptide (also: rhodamine label, site not given here) | detected | primarily in the tumor periphery | detected in the entire tumor | not observed | CREKA peptide staining in heart (MMTV PyMT tumors; heart, co-injected with FITC-tomato-lectin, FIG. 3F): negative |
| CREKA [CREKA peptide] |  |  |  |  | effect of co-injected free peptide on homing of phage displaying the control peptide [2]: did not inhibit; effect of co-injected free peptide on CREKA-displaying phage recovery from breast cancer tissue ([2]; excess of free peptide, FIG. 1B): inhibited; inhibition of clone #3 collagen IV fragment phage binding to immobilized CREKA ([3]; 0.01 mg, 0.05 mg or 0.1 mg soluble peptide in 100 μl PBS, FIG. 5A): inhibited |
| Fibronectin [reference compound] |  |  |  |  | effect of fibronectin on phage binding (clone #3 fragment / immobilized CREKA) ([3]; fibronectin, FIG. 5B): did not significantly reduce |
